What was measured:
T1R2/T1R3 taste receptor = molecular target: T1, T1R2/T1R3 taste receptor (Homo sapiens, UniProt Q7RTX0+Q8TE23); test: Receptor-based assay: sweetener EC50 enhancement ratio with and without test compound; assay type: cell-based; conditions: for Sucrose Enhancement EC50 Ratio: sweetener sucrose; for Fructose Enhancement EC50 Ratio: sweetener fructose; for Sucralose Enhancement EC50 Ratio: sweetener sucralose
T1 sequence (Q8TE23 20-839): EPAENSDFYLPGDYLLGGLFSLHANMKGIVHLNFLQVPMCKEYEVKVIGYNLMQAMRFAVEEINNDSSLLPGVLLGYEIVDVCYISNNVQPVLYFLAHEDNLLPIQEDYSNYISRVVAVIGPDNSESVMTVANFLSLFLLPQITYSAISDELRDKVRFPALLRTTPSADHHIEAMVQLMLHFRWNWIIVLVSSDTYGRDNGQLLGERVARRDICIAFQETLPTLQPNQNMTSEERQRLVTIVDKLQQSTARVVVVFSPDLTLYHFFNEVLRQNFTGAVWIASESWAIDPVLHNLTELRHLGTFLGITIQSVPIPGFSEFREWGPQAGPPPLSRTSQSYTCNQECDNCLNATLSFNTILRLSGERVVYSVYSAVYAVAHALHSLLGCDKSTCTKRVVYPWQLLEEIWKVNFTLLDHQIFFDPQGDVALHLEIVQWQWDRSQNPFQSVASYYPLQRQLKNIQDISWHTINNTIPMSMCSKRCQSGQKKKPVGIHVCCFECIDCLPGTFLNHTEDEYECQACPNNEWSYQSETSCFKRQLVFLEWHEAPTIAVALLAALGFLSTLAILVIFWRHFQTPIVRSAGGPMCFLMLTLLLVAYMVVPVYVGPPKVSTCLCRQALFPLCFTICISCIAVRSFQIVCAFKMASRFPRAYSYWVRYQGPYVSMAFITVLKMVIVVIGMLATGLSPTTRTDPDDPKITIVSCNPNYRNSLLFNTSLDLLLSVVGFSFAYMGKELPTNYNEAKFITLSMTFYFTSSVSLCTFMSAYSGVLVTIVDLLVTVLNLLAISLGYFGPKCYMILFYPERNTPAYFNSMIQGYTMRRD
T1 sequence (Q7RTX0 21-852): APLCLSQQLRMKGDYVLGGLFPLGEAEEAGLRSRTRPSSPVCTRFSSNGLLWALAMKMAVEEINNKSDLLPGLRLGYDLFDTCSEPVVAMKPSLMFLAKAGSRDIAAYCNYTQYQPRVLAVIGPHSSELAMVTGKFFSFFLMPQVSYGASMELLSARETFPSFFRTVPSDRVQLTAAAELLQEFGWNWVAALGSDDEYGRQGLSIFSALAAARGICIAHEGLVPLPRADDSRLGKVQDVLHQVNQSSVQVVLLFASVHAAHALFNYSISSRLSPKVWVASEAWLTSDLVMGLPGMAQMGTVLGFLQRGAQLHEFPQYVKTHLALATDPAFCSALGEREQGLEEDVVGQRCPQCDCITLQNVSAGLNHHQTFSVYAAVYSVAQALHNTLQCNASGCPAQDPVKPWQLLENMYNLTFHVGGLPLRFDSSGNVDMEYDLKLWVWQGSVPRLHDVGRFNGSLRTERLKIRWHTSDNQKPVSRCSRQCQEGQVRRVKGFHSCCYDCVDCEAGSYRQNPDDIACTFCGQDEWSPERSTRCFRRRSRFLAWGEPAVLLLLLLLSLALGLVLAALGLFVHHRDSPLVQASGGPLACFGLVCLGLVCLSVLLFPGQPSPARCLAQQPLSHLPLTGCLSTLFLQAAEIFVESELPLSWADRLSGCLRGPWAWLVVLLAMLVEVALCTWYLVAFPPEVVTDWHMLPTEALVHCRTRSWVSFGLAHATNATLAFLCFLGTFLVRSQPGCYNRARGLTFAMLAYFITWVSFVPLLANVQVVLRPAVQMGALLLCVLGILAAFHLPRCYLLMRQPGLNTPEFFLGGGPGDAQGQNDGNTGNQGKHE
Procedure, shortened: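 Sweetener (sucrose, sucralose, fructose) EC50 measured alone and with 1, 3, 10 or 50 μM test compound. Enhancement ratio = EC50 without/with compound; A = >1 to <10, B = 10–20, C = >20.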

[1] = Sensory paired-comparison sweetness test of sweetener (sucrose or high-fructose corn syrup) with test compound; assay type: in vivo, human; conditions: test compound 10 ppm or less with 6% sucrose, low sodium buffer pH 7.1; sucrose-alone concentration of equivalent perceived sweetness
Experimental: Test samples containing either a sweetener (sucrose or high-fructose corn syrup) alone or in combination with a test compound were presented in pairs to a group of panelist who were asked to determine which of the samples was sweeter. Subjects refrained from eating or drinking (except water) for at least 1 hour prior to the test. Subjects rinsed with water several times to clean the mouth. The samples within a paired comparison test were presented in a randomized, counterbalanced order. Panelists had up to a 1 minute delay between taste tests to clear the mouth of any tastes. Binomial probability tables were used to determine the probability of the correct number of responses occurring for each test at alpha-0.05.
Stock solutions of test compounds were prepared at 1000× final concentration with ethanol to ensure dispersion in solution. Test compound samples including sucrose were prepared by diluting the stock solutions in a low sodium buffer (0.952 g of KCl, 5.444 g of Na2HPO4, and 0.952 g of KH2PO4 in deionized ultrafiltered water) at pH 7.1 and containing sucrose. Test compound samples including high fructose corn syrup were prepared by diluting the stock solutions in the low sodium buffer at pH 2.8 (using citric acid to adjust the pH) and containing high fructose corn syrup. Control samples were balanced to 0.1% ethanol final.
In samples containing the test compound, the test compound was present at a concentration of 10 ppm or less and the concentration of sucrose was 6%. This table indicates the sucrose-alone concentration having a perceived sweetness intensity equivalent to the sweetness intensity of the combination of test compound and sucrose. An “A” value indicates an equivalent sucrose concentration greater than 6% and less than 10%. A “B” value indicates an equivalent sucrose concentration of 10% or greater. […]

Sucralose Enhancement EC50 Ratio (T1R2/T1R3 taste receptor; 10 μM test compound)	Sucrose Enhancement EC50 Ratio (T1R2/T1R3 taste receptor; 10 μM test compound)	SMILES	Sucrose Enhancement EC50 Ratio (T1R2/T1R3 taste receptor; 1 μM test compound)	Sucrose Enhancement EC50 Ratio (T1R2/T1R3 taste receptor; 3 μM test compound)	Fructose Enhancement EC50 Ratio (T1R2/T1R3 taste receptor; 10 μM test compound)	Equivalent Sucrose Conc. [1]	Sucralose Enhancement EC50 Ratio (T1R2/T1R3 taste receptor; 3 μM test compound)	Fructose Enhancement EC50 Ratio (T1R2/T1R3 taste receptor; 50 μM test compound)
C (an enhancement ratio greater than 20)	C (an enhancement ratio greater than 20)	COC[C@H]1CC[C@H](Oc2cccc3nc(C)c(C(=O)O)c(N)c23)CC1 [Compound 101, 4-Amino-5-((trans-4-(methoxymethyl)cyclohexyl)oxy)-2-methylquinoline-3-carboxylic acid]	C (an enhancement ratio greater than 20)	C (an enhancement ratio greater than 20)	A (an enhancement ratio of greater than 1 and less than 10)	A (an equivalent sucrose concentration greater than 6% and less than 10%)		
		CCc1nc2cccc(O[C@H]3CC[C@H](C)CC3)c2c(N)c1C(=O)O [Compound 201]	A (an enhancement ratio of greater than 1 and less than 10)	B (an enhancement ratio from 10 to 20)		A (an equivalent sucrose concentration greater than 6% and less than 10%)		
		Cc1nc2cccc(O[C@H]3CC[C@H](NC(=O)COCC(C)C)CC3)c2c(N)c1C(=O)O [Compound 307]	A (an enhancement ratio of greater than 1 and less than 10)	C (an enhancement ratio greater than 20)		B (an equivalent sucrose concentration of 10% or greater)	B (an enhancement ratio from 10 to 20)	
B (an enhancement ratio from 10 to 20)	B (an enhancement ratio from 10 to 20)	COc1cc(OC)nc(N[C@H]2CC[C@H](Oc3cccc4nc(C)c(C(=O)O)c(N)c34)CC2)n1 [Compound 710]	A (an enhancement ratio of greater than 1 and less than 10)	A (an enhancement ratio of greater than 1 and less than 10)	A (an enhancement ratio of greater than 1 and less than 10)		A (an enhancement ratio of greater than 1 and less than 10)	A (an enhancement ratio of greater than 1 and less than 10)
B (an enhancement ratio from 10 to 20)	B (an enhancement ratio from 10 to 20)	CCc1cnc(N[C@H]2CC[C@H](Oc3cccc4nc(C)c(C(=O)O)c(N)c34)CC2)nc1 [Compound 711]	A (an enhancement ratio of greater than 1 and less than 10)	A (an enhancement ratio of greater than 1 and less than 10)	A (an enhancement ratio of greater than 1 and less than 10)		B (an enhancement ratio from 10 to 20)	A (an enhancement ratio of greater than 1 and less than 10)
C (an enhancement ratio greater than 20)	C (an enhancement ratio greater than 20)	Cc1cc(N[C@H]2CC[C@H](Oc3cccc4nc(C)c(C(=O)O)c(N)c34)CC2)nc(N)n1 [Compound 712]	A (an enhancement ratio of greater than 1 and less than 10)	B (an enhancement ratio from 10 to 20)	A (an enhancement ratio of greater than 1 and less than 10)		B (an enhancement ratio from 10 to 20)	A (an enhancement ratio of greater than 1 and less than 10)
B (an enhancement ratio from 10 to 20)	B (an enhancement ratio from 10 to 20)	Cc1nc2cccc(O[C@H]3CC[C@H](Nc4cnccn4)CC3)c2c(N)c1C(=O)O [Compound 713]	A (an enhancement ratio of greater than 1 and less than 10)	B (an enhancement ratio from 10 to 20)	A (an enhancement ratio of greater than 1 and less than 10)		A (an enhancement ratio of greater than 1 and less than 10)	A (an enhancement ratio of greater than 1 and less than 10)

SMILES	Sucralose Enhancement EC50 Ratio (T1R2/T1R3 taste receptor; 10 μM test compound)	Sucrose Enhancement EC50 Ratio (T1R2/T1R3 taste receptor; 10 μM test compound)	Sucrose Enhancement EC50 Ratio (T1R2/T1R3 taste receptor; 1 μM test compound)	Sucrose Enhancement EC50 Ratio (T1R2/T1R3 taste receptor; 3 μM test compound)	Fructose Enhancement EC50 Ratio (T1R2/T1R3 taste receptor; 10 μM test compound)	Equivalent Sucrose Conc. [1]	Sucralose Enhancement EC50 Ratio (T1R2/T1R3 taste receptor; 3 μM test compound)	Fructose Enhancement EC50 Ratio (T1R2/T1R3 taste receptor; 50 μM test compound)
CCCOCC(=O)N[C@H]1CC[C@H](Oc2cccc3nc(C)c(C(=O)O)c(N)c23)CC1 [Compound 305]	C (an enhancement ratio greater than 20)	A (an enhancement ratio of greater than 1 and less than 10)	B (an enhancement ratio from 10 to 20)	A (an enhancement ratio of greater than 1 and less than 10)		B (an equivalent sucrose concentration of 10% or greater)		
Cc1nc2cccc(O[C@H]3CC[C@H](NC(=O)COC(C)C)CC3)c2c(N)c1C(=O)O [Compound 306]	A (an enhancement ratio of greater than 1 and less than 10)	A (an enhancement ratio of greater than 1 and less than 10)	B (an enhancement ratio from 10 to 20)	A (an enhancement ratio of greater than 1 and less than 10)		B (an equivalent sucrose concentration of 10% or greater)		
Cc1nccc(N[C@H]2CC[C@H](Oc3cccc4nc(C)c(C(=O)O)c(N)c34)CC2)n1 [Compound 714]	A (an enhancement ratio of greater than 1 and less than 10)	A (an enhancement ratio of greater than 1 and less than 10)	A (an enhancement ratio of greater than 1 and less than 10)	A (an enhancement ratio of greater than 1 and less than 10)	A (an enhancement ratio of greater than 1 and less than 10)		A (an enhancement ratio of greater than 1 and less than 10)	A (an enhancement ratio of greater than 1 and less than 10)

Source: US11339128B2 (Firmenich Incorporated, priority 2014, dated 2022)
